Test results published in US7674810B2, “1,1-dioxo-1H-1Λ6-benzo[d]isothiazol-3-yl)-4-hydroxy-1,5-dihydro-pyrrol-2-one inhibitors of HCV polymerase” (Roche Palo Alto LLC, priority 2006, dated 2010).

What was measured:
[1] = tested on: Renilla luciferase HCV replicon cells (2209-23); assay: Renilla luciferase Assay (HCV replicon); format: cell-based, HCV; human hepatoma Huh7 cells; details: 72 h; replicon cell line 2209-23, three days incubation; read-out: R. luciferase Activity IC50

SMILES | melting point | IC50 [1]
CC(C)CCc1nc(C2=NS(=O)(=O)c3ccccc32)c(O)c2ccccc12 | 206 to 209 °C | –
Cc1cccc(-c2cccc3c2S(=O)(=O)N=C3c2nc(Cc3ccc(F)cc3)c3ccccc3c2O)c1 | 228 to 230 °C | –
O=S1(=O)N=C(c2nc(Cc3ccc(F)cc3)c3ccccc3c2O)c2cccc(-c3cccc(F)c3)c21 | > 275 °C | –
O=S1(=O)N=C(c2nc(Cc3ccc(F)cc3)c3ccc(F)cc3c2O)c2cccc(Cl)c21 | > 275 °C | –
CS(=O)(=O)Nc1cccc2c1S(=O)(=O)N=C2c1nc(Cc2ccc(F)cc2)c2ccccc2c1O | > 275 °C | –
COc1ccc(-c2cccc3c2S(=O)(=O)N=C3c2nc(Cc3ccc(F)cc3)c3ccccc3c2O)cn1 | 194 to 196 °C | –
CS(=O)(=O)Nc1ccc2c(c1)S(=O)(=O)N=C2c1nc(Cc2ccc(F)cc2)c2ccccc2c1O | > 275 °C | –
O=S1(=O)N=C(c2nc(Cc3ccc(F)cc3)c3ccc(F)cc3c2O)c2ccccc21 | > 275 °C | –
O=C1C(C2=NS(=O)(=O)c3ccccc32)=C(O)[C@H](C2CCCCC2)N1Cc1ccccc1 | 104 to 106 °C | –
COc1cc(CN2C(=O)C(C3=NS(=O)(=O)c4ccccc43)=C(O)[C@@H]2C(C)(C)C)ccc1F | 92 to 104 °C | –
Cc1cc(CN2C(=O)C(C3=NS(=O)(=O)c4c(CNS(=O)(=O)N5CCC(N)C5)cccc43)=C(O)[C@@H]2C(C)(C)C)ccc1F.O=C(O)C(F)(F)F (stereo partly drawn) | 128 to 134 °C | –
CC(=O)NC1CCN(S(=O)(=O)NCc2cccc3c2S(=O)(=O)N=C3C2=C(O)[C@H](C(C)(C)C)N(Cc3ccc(F)c(C)c3)C2=O)C1 (stereo partly drawn) | 239 to 259 °C | –
Cc1cc(CN2C(=O)C(C3=NS(=O)(=O)c4c(CNS(=O)(=O)N5CCC(S(C)(=O)=O)C5)cccc43)=C(O)[C@@H]2C(C)(C)C)ccc1F (stereo partly drawn) | 124 to 137 °C | –
CC(C)(C)[C@H]1C(O)=C(C2=NS(=O)(=O)c3c(CNS(=O)(=O)c4cccs4)cccc32)C(=O)N1Cc1ccc(F)cc1 | 175 to 192 °C | –
Cc1nc(S(=O)(=O)NCc2cccc3c2S(=O)(=O)N=C3C2=C(O)[C@H](C(C)(C)C)N(Cc3ccc(F)cc3)C2=O)cn1C.O=C(O)C(F)(F)F | 110 to 116 °C | –
O=C1C(C2=NS(=O)(=O)c3ccccc32)=C(O)[C@H](C2CCCCC2)N1Cc1ccc(F)cc1.[Na] | 235 to 238 °C | –
CC(C)(C)[C@H]1C(O)=C(C2=NS(=O)(=O)c3ccccc32)C(=O)N1CC1CCC1 | 69 to 78 °C | –
CC(C)CC1C(O)=C(C2=NS(=O)(=O)c3ccccc32)C(=O)N1Cc1ccc(F)cc1 (stereo not drawn) | 200 °C (dec.) | –
CC(C)C[C@@H]1C(O)=C(C2=NS(=O)(=O)c3ccccc32)C(=O)N1Cc1ccc(F)cc1 | 200 °C (dec.) | –
CC(C)(C)[C@H]1C(O)=C(C2=NS(=O)(=O)c3ccccc32)C(=O)N1Cc1ccc(F)c(Br)c1 | 114 to 119 °C | –
CC(C)(C)[C@H]1C(O)=C(C2=NS(=O)(=O)c3ccccc32)C(=O)N1Cc1ccc(F)c(F)c1 | 80 to 89 °C | –

SMILES | melting point | IC50 [1]
CC(C)(C)[C@H]1C(O)=C(C2=NS(=O)(=O)c3ccccc32)C(=O)N1Cc1ccc(F)c(C(F)(F)F)c1 | 85 to 91 °C | –
O=C1C(C2=NS(=O)(=O)c3ccccc32)=C(O)[C@H](c2ccccc2)N1Cc1ccc(F)cc1 | 145 to 155 °C | –
O=C1C(C2=NS(=O)(=O)c3ccccc32)=C(O)[C@H](Cc2ccccc2)N1Cc1ccc(F)cc1 | 85 to 92 °C | –
CC(C)(C)C1C(O)=C(C2=NS(=O)(=O)c3ccccc32)C(=O)N1Cc1ccc(F)cc1 (stereo not drawn) | > 220 °C | –
CC(C)(C)[C@H]1C(O)=C(C2=NS(=O)(=O)c3ccccc32)C(=O)N1Cc1ccc(F)c(C2CC2)c1 | 71 to 85 °C | –
CC(C)(C)[C@H]1C(O)=C(C2=NS(=O)(=O)c3c2cccc3-c2ccc(=O)[nH]c2)C(=O)N1Cc1ccc(F)cc1 | > 275 °C | –
COc1ncc(-c2cccc3c2S(=O)(=O)N=C3C2=C(O)[C@H](C(C)(C)C)N(Cc3ccc(F)cc3)C2=O)cn1 | > 250 °C | –
CN(C)S(=O)(=O)NCc1cccc2c1S(=O)(=O)N=C2C1=C(O)[C@H](C(C)(C)C)N(Cc2ccc(F)cc2)C1=O | 102 to 115 °C | –
CC(C)(C)C1C(O)=C(C2=NS(=O)(=O)c3c(Cl)cccc32)C(=O)N1Cc1ccc(F)cc1 (stereo not drawn) | 179 to 213 °C | –
CC(C)(C)C1C(O)=C(C2=NS(=O)(=O)c3c(OCC(N)=O)cccc32)C(=O)N1Cc1ccc(F)cc1 (stereo not drawn) | > 250 °C | –
CC(C)(C)[C@H]1C(O)=C(C2=NS(=O)(=O)c3c2cccc3-c2cnc(=O)[nH]c2)C(=O)N1Cc1ccc(F)cc1 | > 260 °C | –
CC(C)(C)[C@H]1C(O)=C(C2=NS(=O)(=O)c3c(CNS(=O)(=O)C4CC4)cccc32)C(=O)N1Cc1ccc(F)cc1 | 102 to 105 °C | –
CC(C)(C)[C@H]1C(O)=C(C2=NS(=O)(=O)c3c2cccc3-c2cn[nH]c2)C(=O)N1Cc1ccc(F)cc1 | > 250 °C | –
COc1cccc2c1S(=O)(=O)N=C2C1=C(O)[C@H](C(C)(C)C)N(Cc2ccc(F)cc2)C1=O | 224 to 235 °C | –
CC(C)(C)[C@H]1C(O)=C(C2=NS(=O)(=O)c3c(CNCC(N)=O)cccc32)C(=O)N1Cc1ccc(F)cc1 | 118 to 124 °C | –
CC(C)(C)[C@H]1C(O)=C(C2=NS(=O)(=O)c3c(CN4CCCS4(=O)=O)cccc32)C(=O)N1Cc1ccc(F)cc1 | 224 to 230 °C | –
CNC(=O)CN(Cc1cccc2c1S(=O)(=O)N=C2C1=C(O)[C@H](C(C)(C)C)N(Cc2ccc(F)cc2)C1=O)C(C)=O | 150 to 154 °C | –
COc1cc(CN2C(=O)C(C3=NS(=O)(=O)c4c(CNS(C)(=O)=O)cccc43)=C(O)[C@@H]2C(C)(C)C)ccc1F | 121 to 126 °C | –
CN(C)C(=O)CNc1cccc2c1S(=O)(=O)N=C2C1=C(O)[C@H](C(C)(C)C)N(Cc2ccc(F)cc2)C1=O | 185 to 190 °C | –
CNC(=O)CNCc1cccc2c1S(=O)(=O)N=C2C1=C(O)[C@H](C(C)(C)C)N(Cc2ccc(F)cc2)C1=O | 175 to 180 °C | –
CC(C)(C)[C@H]1C(O)=C(C2=NS(=O)(=O)c3c(NS(C)(=O)=O)cccc32)C(=O)N1Cc1ccc(F)cc1 | 245 to 250 °C | –

SMILES | melting point | IC50 [1]
CN(C)C(=O)COc1cccc2c1S(=O)(=O)N=C2C1=C(O)[C@H](C(C)(C)C)N(Cc2ccc(F)cc2)C1=O | 137 °C | –
CC(C)(C)[C@H]1C(O)=C(C2=NS(=O)(=O)c3ccccc32)C(=O)N1CCC1CC1 | 135 to 140 °C | –
CC(C)[C@H]1C(O)=C(C2=NS(=O)(=O)c3ccccc32)C(=O)N1Cc1ccc(F)cc1 | 95 to 110 °C | –
CNC(=O)COc1cccc2c1S(=O)(=O)N=C2C1=C(O)[C@H](C(C)(C)C)N(Cc2ccc(F)cc2)C1=O | > 210 °C | –
CCOC(=O)CNc1cccc2c1S(=O)(=O)N=C2C1=C(O)[C@H](C(C)(C)C)N(Cc2ccc(F)cc2)C1=O | 148 to 152 °C | –
CC(C)(C)[C@H]1C(O)=C(C2=NS(=O)(=O)c3c(CNS(=O)(=O)N4CC[C@H](O)C4)cccc32)C(=O)N1Cc1ccc(F)cc1 | > 250 °C | –
CC(C)(C)[C@H]1C(O)=C(C2=NS(=O)(=O)c3c(CNS(C)(=O)=O)cccc32)C(=O)N1Cc1ccc(F)c(Br)c1 | 138 to 159 °C | –
CC(C)(C)[C@H]1C(O)=C(C2=NS(=O)(=O)c3c(CNS(C)(=O)=O)cccc32)C(=O)N1CCC1CCCC1 | 74 to 86 °C | –
CC(C)(C)[C@H]1C(O)=C(C2=NS(=O)(=O)c3c(CNS(=O)(=O)c4ccccc4)cccc32)C(=O)N1Cc1ccc(F)cc1 | 96 to 112 °C | –
CC(C)(C)[C@H]1C(O)=C(C2=NS(=O)(=O)c3c(CCS(C)(=O)=O)cccc32)C(=O)N1Cc1ccc(F)cc1 | 127 to 135 °C | –
Cc1cccc2c1S(=O)(=O)N=C2C1=C(O)[C@H](C(C)(C)C)N(Cc2ccc(F)cc2)C1=O | > 250 °C | –
CC(C)COc1cccc2c1S(=O)(=O)N=C2C1=C(O)[C@H](C(C)(C)C)N(Cc2ccc(F)cc2)C1=O | 99 to 106 °C | –
CN(C)S(=O)(=O)Oc1cccc2c1S(=O)(=O)N=C2C1=C(O)[C@H](C(C)(C)C)N(Cc2ccc(F)cc2)C1=O | 116 to 126 °C | –
CNS(=O)(=O)COc1cccc2c1S(=O)(=O)N=C2C1=C(O)[C@H](C(C)(C)C)N(Cc2ccc(F)cc2)C1=O | 155 to 165 °C | –
CC(C)(C)[C@H]1C(O)=C(C2=NS(=O)(=O)c3c(CNS(=O)(=O)N4CCOCC4)cccc32)C(=O)N1Cc1ccc(F)cc1 | 118 to 129 °C | –
CCC(=O)N(Cc1cccc2c1S(=O)(=O)N=C2C1=C(O)[C@H](C(C)(C)C)N(Cc2ccc(F)c(C)c2)C1=O)S(C)(=O)=O | 98 to 99.8 °C | –
Cc1cc(CN2C(=O)C(C3=NS(=O)(=O)c4c(CNS(=O)(=O)N5CCNCC5)cccc43)=C(O)[C@@H]2C(C)(C)C)ccc1F.O=C(O)C(F)(F)F | 135 to 151 °C | –
CN(Cc1cccc2c1S(=O)(=O)N=C2C1=C(O)[C@H](C(C)(C)C)N(Cc2ccc(F)cc2)C1=O)S(=O)(=O)N1CCNCC1.O=C(O)C(F)(F)F | 113 to 128 °C | –
Cc1cc(CN2C(=O)C(C3=NS(=O)(=O)c4c(CNS(C)(=O)=O)cccc43)=C(O)C2C(C)(C)C)ccc1F (stereo not drawn) [II-38, N-{3-[5-tert-Butyl-1-(4-fluoro-3-methyl-benzyl)-4-hydroxy-2-oxo-2,5-dihydro-1H-pyrrol-3-yl]-1,1-dioxo-1H-1λ^6-benzo[d]isothiazol-7-ylmethyl}-methanesulfonamide] | – | 35 nM
CC(C)(C)[C@H]1C(O)=C(C2=NS(=O)(=O)c3c(CNS(N)(=O)=O)cccc32)C(=O)N1Cc1ccc(F)cc1 [II-41, Amino-sulfonic acid {3-[(S)-5-tert-butyl-1-(4-fluoro-benzyl)-4-hydroxy-2-oxo-2,5-dihydro-1H-pyrrol-3-yl]-1,1-dioxo-1H-1λ^6-benzo[d]isothiazol-7-ylmethyl}-amide] | – | 58 nM
CC(C)(C)[C@H]1C(O)=C(C2=NS(=O)(=O)c3c(OCS(N)(=O)=O)cccc32)C(=O)N1Cc1ccc(F)cc1 [II-64, {3-[(S)-5-tert-Butyl-1-(4-fluoro-benzyl)-4-hydroxy-2-oxo-2,5-dihydro-1H-pyrrol-3-yl]-1,1-dioxo-1H-1λ^6-benzo[d]isothiazol-7-yloxy}-methanesulfonamide] | – | 228 nM
